Experimental data from patent US10881642B2, “Autophagy enhancer and use thereof” (Industry-Academic Cooperation Foundation, Yonsei University, priority 2016, dated 2021).

Key:
[1] = system: INS-1 cells transfected with prepro-hIAPP-HA; test: pro-hIAPP accumulation and apoptosis in transfected INS-1 cells; type: cell-based, mice; conditions: for accumulation of pro-hIAPP dimers: western blot, anti-HA
Method: (FIG. 13A) INS-1 cells transfected with non-amyloidogenic prepro-mIAPP-HA or amyloidogenic prepro-hIAPP-HA construct were treated with MSL or MSL-7 followed by western blot analysis using anti-HA antibody. (FIG. 13B) the transfected cells of (FIG. 13A) were treated with MSL-7 in the presence or absence of bafilomycin followed by western blot analysis using anti-HA antibody. (FIG. 13C) The transfected cells were treated with MSL-7 in the presence or absence of 3-MA, after which the amount of […] contained in the cell lysates were measured. (FIG. 13D) HFD-fed hIAPP+ mice were administered with MSL-7, and non-fasting glucose level was monitored. (FIG. 13E) IPGTT. (FIG. 13F) HFD-fed hIAPP+ mice were administered with MSL-7 for 8 weeks and the insulinogenic index was measured. (FIG. 13G) HFD-fed hIAPP+ mice were administered with MSL-7 for 8 weeks and the pancreatic section was obtained. All antibody was used for immunohistochemistry (left). The percentage of A11-[…] cells among DAPI+ cells (right). (FIG. 13H) FSB stained pancreatic section of HFD-fed hIAPP+ mice administered with MSL-7 for 8 weeks (left). Average fluorescence intensity/area (right).
Screening of autophagy enhancer. […] Luciferase assay. […] Firefly luciferase was determined after mixing 5 μl of lysate with 25 μl of Luciferase Assay Reagent II. Renilla luciferase was then determined after further addition of 20 ul of Stop&Glo Reagent. […] Cytotoxicity was determined by the measurement of LDH release in cell culture media using the LDH kit (Roche), according to the protocol from the manufacturer. […] Imaging and image quantification. […] Formation of acidic vesicular organelles was quantitated by staining the cells with acridine orange (Invitrogen, 5 ug/ml, 10 min). […] Cells or tissues were solubilized in lysis buffer supplemented with protease and phosphatase inhibitors and protein concentration was measured by the Bradford method. Ten to 30 micrograms were loaded on 4-12% Bis-Tris gel (NUPAGE, Invitrogen) or 8-15% SDS-PAGE, transferred to PVDF membranes and analyzed by western blot using the ECL method (Pierce). […]

[2] = system: calcineurin; test: Calcineurin phosphatase activity assay; type: cell-based; conditions: lysates of Hepa1c1c7 cells

| Compound | apoptosis of cells transfected with prepro-hIAPP ([1]; in the presence of 3-MA) | accumulation of pro-hIAPP dimers [1] | calcineurin activity [2] |
| --- | --- | --- | --- |
| COc1oc(-c2ccccc2Cl)nc1S(=O)(=O)c1ccccc1 [MSL-7, 2-(2-chlorophenyl)-5-methoxy-4-(phenylsulfonyl) oxazole] | significantly reduced | reduced | calcineurin activation in a dose-dependent manner |
| CSc1oc(-c2ccccc2)nc1S(=O)(=O)c1ccc(F)cc1 [MSL] |  | reduced | significantly increased |
